Measurements: PMC5936786, “Discovery of Natural Products as Novel and Potent FXR Antagonists by Virtual Screening” (Frontiers in Chemistry, 2018)
“Also recorded” adds a separate entry of the source. Read-outs that look alike come from different tables or passages of the source.

Experiments:
[1] = target: T1, hFXR-LBD (interaction with coactivator SRC-1) (Homo sapiens, UniProt Q96RI1); experiment: Y2H agonist assay: SRC-1 recruitment to FXR-LBD (α-galactosidase readout); format: cell-based; conditions: GAtreated/GADMSO (DMSO = 1.00), average of triplicate
T1 construct: human FXRα-LBD (200-473 AA) was sub-cloned into vector pGBKT-7; expressed in transfected cells; host or cells: Saccharomyces cerevisiae strain AH109 (Clontech), co-transformed with pGBKT7-FXR LBD and pGADT7-SRC-1
T1 sequence (Q96RI1 214-486): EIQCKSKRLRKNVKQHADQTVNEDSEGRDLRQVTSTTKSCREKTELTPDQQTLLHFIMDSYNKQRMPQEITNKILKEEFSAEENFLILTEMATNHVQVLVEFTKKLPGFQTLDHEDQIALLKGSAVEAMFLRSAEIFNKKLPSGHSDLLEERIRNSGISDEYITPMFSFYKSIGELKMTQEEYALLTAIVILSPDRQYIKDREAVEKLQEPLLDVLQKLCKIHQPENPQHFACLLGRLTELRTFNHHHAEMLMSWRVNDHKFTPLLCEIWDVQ
Excerpt: Each experiment was repeated three times independently.
agonistic activation=GAtreated/GADMSOinhibition rate(%)=GACDCA−GAtreated/GACDCA−GADMSO
where GA indicates α-galactosidase activity.

estrogen receptor (ER) = conditions: cited from earlier work; for agonistic profiles against ER (in words): ref Cao et al., 2013
[2] = target: T2, hFXR-LBD (interaction with coactivator SRC-1) (Homo sapiens, UniProt Q96RI1); experiment: Y2H antagonist assay: inhibition of CDCA-induced SRC-1 recruitment to FXR-LBD (α-galactosidase readout); conditions: for antagonistic activity against FXR (in words): coactivator recruitment assay; for inhibition at 25 µM: read-out: Inhibition rate % (25 μM), 25 μM compound plus 10 μM CDCA, 24 h, average of triplicate
T2 sequence (Q96RI1 200-472 isoform Q96RI1-2): T1 sequence (Q96RI1 214-486)
Experimental: We performed Y2H assay to determine the agonistic or antagonistic activities of the compounds. […] The quantitative α-galactosidase activity assays were carried out by using PNP-α-Gal as the substrate according to the Clontech manual. Each experiment was repeated three times independently.
• Vortex the overnight culture tube for 0.5–1 min to disperse cell clumps and then each sample needs 200 μL to record the exact OD600. • Centrifuge the tube at 14,000 rpm (10,000 × g) for 30 s. Incubate 16 μL cell culture medium supernatant with 48 μL PNP-α-Gal at 30°C for 60 min. Be sure to cover microtiter plates with a lid or parafilm to prevent evaporation. • Terminate the reaction by adding 136 μL of 1 μM sodium carbonate. Record the optical density of each sample at 410 nm.
The α-galactosidase activity was calculated according to the following formula:
α−galactosidase activity[milliunits/(mL×cell)]​ ​​​=OD410×Vf×1000/(ε×b)×t×Vi×OD600
The agonistic activation and inhibition rates (%) were calculated as follows:

FXR [3] = conditions: cited from earlier work
FXR [4] = conditions: FXR antagonist, cited from earlier work
FXR [5] = system: FXR; parameters: method as in Dussault et al., 2003; conditions: FXR antagonist; ref Dussault et al., 2003; cited from earlier work
FXR [6] = conditions: FXR antagonist, cited from earlier work; remark: listed apart in the source
FXR [7] = system: FXR; parameters: method as in Xu et al., 2015; conditions: FXR antagonist; ref Xu et al., 2015; cited from earlier work

| Structure (SMILES) | Agonistic activation (25 μM) [1] | IC50 [2] [µM] | antagonistic activity against FXR (in words) [2] | inhibition at 25 µM [2] [%] | other results |
| --- | --- | --- | --- | --- | --- |
| CCOC(=O)c1ccc(O)cc1 [Compound 3e, Ethylparaben] | 0.93 | 19.3 | moderate antagonistic activities; also recorded: moderate antagonistic effects | 60.1 | agonistic profiles against ER (in words) (estrogen receptor (ER)): agonistic profiles |
| O=C(/C=C/CCc1ccccc1)c1ccc(O)cc1 [Compound 3c, Daphnenone] | 1.29 | 5.46 | – | > 50 | – |
| COC(=O)/C=C/c1cccc(N(Cc2ccc(-c3ccc(N(C)C)cc3)cc2)C(=O)C2CCCCC2)c1 [Fexeramine, Fexaramine] | – | – | – | – | EC50 (FXR [3]; reported FXR modulators, Figure 1, reference not given, read-out: EC50, FXR agonists (Figure 1)): 0.025 µM |
| CCCCC/C=C/C=C1/C=CC(=O)[C@@H]1C/C=C\CCCC(=O)O [Compound 17] | – | – | – | – | IC50 (FXR [4]; ref Xu et al., 2013): 7.25 µM |
| O=C(CC(O)CCc1ccccc1)c1ccc(O)cc1 (stereo not drawn) [Compound 3b, Daphneolon] | 0.76 | > 25 | – | 41.4 | – |
| C/C(=C/C(=O)C[C@@H](C)[C@H]1CC[C@@]2(C)C3=CCC4C(C)(C)C(=O)CC[C@]4(C)C3CC[C@]12C)C(=O)O (stereo partly drawn) [Compound 1b, (24Z)-3,23-Dioxo-9βH-lanosta-7,24-dien-27-oic acid] | 1.12 | > 25 | no detectable antagonistic activity | 22.7 | – |
| CCCCCCCc1c(\C(C)=C/C=C/C(C)=C/C(=O)O)cc(C(C)C)cc1C(C)C [Compound 14] | – | – | – | – | IC50 (FXR [5]): 0.3 µM |
| CC(C)=CCCC1=C[C@@H](C/C(C)=C/CC[C@@]2(C)C=Cc3cc(O)cc(C)c3O2)OC1=O [Compound 10] | – | – | – | – | IC50 (FXR [6]; ref Choi et al., 2011): 1.5 µM |
| C/C(=C/C(=O)C[C@@H](C)[C@]1(C)CC[C@@]2(C)C3=CCC4C(C)(C)[C@H](O)CC[C@]4(C)[C@@H]3CC=C21)C(=O)O (stereo partly drawn) [Compound 1a, Abiesatrine B] | 1.09 | 13.5 | moderate antagonistic activity | > 50 | agonistic effect against estrogen receptor (ER) (in words) (estrogen receptor (ER); reported in a previous study, no reference given): moderate agonistic effect |
| CC1(CO)CCCC2(C)C1CCC1(C)C2CC(O)C2(C)C3COC(=O)C3=CCC12 (stereo not drawn) [Compound 8] | – | – | – | – | IC50 (FXR [6]; ref Nam et al., 2007): 2.4 µM |
| CC(=O)c1ccc2c(c1)C(=O)CC1[C@](C)(C(=O)O)CCC[C@]21C (stereo partly drawn) [Compound 2b, 17-Nor-7,15-dion-8,11,13-abietatrien-18-oic acid] | 0.90 | > 25 | no observed activity | 10.1 | – |
| CC(C)(O)c1ccc2c(c1)C(=O)CC1[C@](C)(C(=O)O)CCC[C@]21C (stereo partly drawn) [Compound 2a, 15-Hydroxy-7-oxo-8,11,13-abietatrien-18-oic acid] | 1.05 | 1.29 | – | – | fold stronger antagonistic activity compared with compound 1a ([2]; vs compound 1a): 10 fold |
| C/C(=C\CC[C@@H](C)[C@H]1CC[C@@]2(C)C3=CCC4C(C)(C)C(=O)CC[C@]4(C)C3CC[C@]12C)C(=O)O (stereo partly drawn) [Compound 1c, Abiesatrine D] | 0.93 | > 25 | no detectable antagonistic activity | 12.8 | – |
| COc1cc(/C=C2\C(=O)N(c3cccc([N+](=O)[O-])c3)N=C2c2ccccc2)ccc1O [Compound 11] | – | – | – | – | IC50 (FXR [4]; ref Huang et al., 2012): 8.96 µM |
| CN(C)c1cc(Cl)c(C(=O)N(Cc2ccccc2)c2ccc(O)c(C(C)(C)C)c2)c(Cl)c1 [Compound 18, N-benzyl-N-(3-(tert-butyl)-4-hydroxyphenyl)-2,6-dichloro-4-(dimethylamino) benzamide] | – | – | – | – | IC50 (FXR [7]): 3.4 µM |
| O=C(CCCCc1ccccc1)c1ccc(O)cc1 [Compound 3a, Daphneone] | 1.03 | 1.79 | – | – | fold higher antagonistic activity against FXR compared to guggulsterone [2]: 3 fold |
| O=C(O)C=Cc1ccc(O)cc1 [Compound 3d, P-coumaric acid] | 1.08 | 14.1 | moderate antagonistic activities; also recorded: moderate antagonistic effects | 52.8 | agonistic profiles against ER (in words) (estrogen receptor (ER)): agonistic profiles |
